Reference: ChEMBL document CHEMBL1138613, “1,5-Benzodiazepine inhibitors of HCV NS5B polymerase” (Bioorg Med Chem Lett, 2009)

Experiments:
[1] = Inhibition of HCV NS5B polymerase; set-up: species or system Hepacivirus hominis
[2] = Cytotoxicity against human HuH7 cells after 5 days by ATPlite luminescence assay; type: cell-based, Huh-7
Hepatitis C virus [3] = test: Antiviral activity against HCV 1b in human HuH7cells by luciferase reporter replicon assay; type: functional, organism-based, Hepacivirus hominis; details: genotype 1b, Huh-7
Hepatitis C virus [4] = test: Inhibition of HCV 1b J4 recombinant NS5B Cdelta 21 polymerase overexpressed in Escherichia coli BL21 (DE3) assessed as [alpha33P]UTP incorporation by scintillation proximity analysis; set-up: species or system Hepatitis C virus subtype 1b
[5] = Apparent permeability from apical to basolateral side of human Caco-2 cells; type: ADME, cell-based
[6] = Selectivity index, ratio of CC50 for human HuH7 cells to EC50 for HCV 1b in human HuH7cells; type: functional, Huh-7

Row | IC50 [1] | SMILES | CC50 at 120 h [2] | EC50 (Hepatitis C virus [3]) | IC50 (Hepatitis C virus [4]) | Papp A→B [5] | Selectivity Index [6]
1 | 100 nM | O=C(O)/C(=C/c1ccc(Oc2ccccc2Br)cc1)NC(=O)c1ccccc1 |  |  |  |  | 
2 | 17000 nM | O=C(O)/C(=C/c1ccc(Oc2ccccc2)cc1)NC(=O)c1ccccc1 |  |  |  |  | 
3 | 30 nM | O=C(O)/C(=C/c1ccc(Oc2c(F)cccc2Br)cc1)NC(=O)c1ccccc1 |  |  |  |  | 
4 |  | CC1(C)CC(=O)C2=C(C1)Nc1c(O)cccc1N(C(=O)c1ccncn1)C2c1ccc(OCc2ccccc2)cc1F (stereo unspecified) | > 32 µM | 730 nM | 60 nM |  | 
5 |  | CC1(C)CC(=O)C2=C(C1)Nc1c(O)cccc1N(C(=O)c1nccs1)C2c1ccc(OCc2ccccc2)cc1F (stereo unspecified) | 19 µM | 1700 nM | 111 nM |  | 
6 |  | CC1(C)CC(=O)C2=C(C1)Nc1c(O)cccc1N(C(=O)c1ccccn1)C2c1ccc(OCc2ccccc2)cc1F (stereo unspecified) | 15 µM | 360 nM | 51 nM |  | 
7 |  | CC(=O)N1c2cccc(O)c2NC2=C(C(=O)CC(C)(C)C2)C1c1ccc(Oc2ccccc2)cc1Cl (stereo unspecified) |  | 9900 nM | 160 nM |  | 
8 |  | CC(=O)N1c2cccc(O)c2NC2=C(C(=O)CC(C)(C)C2)C1c1ccc(Cl)cc1Cl (stereo unspecified) |  | 3000 nM | 100 nM |  | 
9 |  | CC(=O)N1c2cccc(O)c2NC2=C(C(=O)CC(C)(C)C2)[C@@H]1c1ccc(Cl)cc1Cl |  | 2420 nM |  |  | 
10 |  | CC(=O)N1c2ccncc2NC2=C(C(=O)CC(C)(C)C2)C1c1ccc(Cl)cc1Cl (stereo unspecified) |  | > 32000 nM | 510 nM |  | 
11 |  | CC(=O)N1c2ncnc(O)c2NC2=C(C(=O)CC(C)(C)C2)C1c1ccc(Cl)cc1Cl (stereo unspecified) |  | > 32000 nM | > 32000 nM |  | 
12 |  | CC(=O)N1c2cccc(O)c2NC2=C(C(=O)CC(C)(C)C2)C1C1CCCCC1 (stereo unspecified) |  | 740 nM | 22000 nM |  | 
13 |  | CC(=O)N1CC2=C(CC(C)(C)CC2=O)Nc2c(O)cccc21 |  | > 32000 nM | > 32000 nM |  | 
14 |  | Cc1nc(C(=O)N2c3cccc(O)c3NC3=C(C(=O)CC(C)(C)C3)C2c2ccc(OCc3ccccc3)cc2F)cs1 (stereo unspecified) | > 32 µM | 970 nM | 143 nM |  | 
15 |  | CC(=O)N1c2ncccc2NC2=C(C(=O)CC(C)(C)C2)C1c1ccc(Cl)cc1Cl (stereo unspecified) |  | > 32000 nM | 8040 nM |  | 
16 |  | CC(C)C(=O)N1c2cccc(O)c2NC2=C(C(=O)CC(C)(C)C2)C1c1ccc(OCc2ccccc2)cc1F (stereo unspecified) | 14 µM | 1300 nM | 123 nM |  | 
17 |  | CC(=O)N1c2cccc(O)c2NC2=C(C(=O)CC(C)(C)C2)C1c1ccco1 (stereo unspecified) |  | 43000 nM | 21000 nM |  | 
18 |  | CC(=O)N1c2cccc(O)c2NC2=C(C(=O)CC(C)(C)C2)C1c1nccn1C (stereo unspecified) |  | > 32000 nM | > 32000 nM |  | 
19 |  | Cc1cc(OCc2ccccc2)ccc1C1C2=C(CC(C)(C)CC2=O)Nc2c(O)cccc2N1C(=O)C(C)C (stereo unspecified) | 15 µM | 1600 nM | 124 nM |  | 
20 |  | CC(=O)N1c2ccccc2NC2=C(C(=O)CC(C)(C)C2)C1c1ccc(Cl)cc1Cl (stereo unspecified) |  | > 32000 nM | 3100 nM |  | 
21 |  | CC(=O)N1c2cccc(Br)c2NC2=C(C(=O)CC(C)(C)C2)C1c1ccc(Cl)cc1Cl (stereo unspecified) |  | 7800 nM | 6120 nM |  | 
22 |  | CC(=O)N1c2cccc(C#N)c2NC2=C(C(=O)CC(C)(C)C2)C1c1ccc(Cl)cc1Cl (stereo unspecified) |  | 15400 nM | 6970 nM |  | 
23 |  | Cc1cccc(C(=O)N2c3cccc(O)c3NC3=C(C(=O)CC(C)(C)C3)C2c2ccc(OCc3ccccc3)cc2F)n1 (stereo unspecified) | 18 µM | 500 nM | 70 nM |  | 
24 |  | CC1(C)CC(=O)C2=C(C1)Nc1c(O)cccc1N(C(=O)c1cccc(F)n1)C2c1ccc(OCc2ccccc2)cc1F (stereo unspecified) | > 32 µM | 860 nM | 77 nM |  | 
25 |  | CC1(C)CC(=O)C2=C(C1)Nc1c(O)cccc1N(C(=O)c1cscn1)C2c1ccc(OCc2ccccc2)cc1F (stereo unspecified) | 29 µM | 760 nM | 39 nM |  | 
26 |  | Cc1nc(C(=O)N2c3cccc(O)c3NC3=C(C(=O)CC(C)(C)C3)[C@@H]2c2ccc(OCc3ccccc3)cc2F)c(C)o1 | 28 µM | 270 nM | 29 nM | 10.9 ×10⁻⁶ cm/s | 100

Row | IC50 [1] | SMILES | CC50 at 120 h [2] | EC50 (Hepatitis C virus [3]) | IC50 (Hepatitis C virus [4]) | Papp A→B [5] | Selectivity Index [6]
27 |  | Cc1cc(C(=O)N2c3cccc(O)c3NC3=C(C(=O)CC(C)(C)C3)C2c2ccc(OCc3ccccc3)cc2F)no1 (stereo unspecified) | 45 µM | 1800 nM | 120 nM |  | 
28 |  | CC1(C)CC(=O)C2=C(C1)Nc1c(O)cccc1N(C(=O)c1ncn[nH]1)C2c1ccc(OCc2ccccc2)cc1F (stereo unspecified) | > 32 µM | 2400 nM | 21 nM |  | 
29 |  | CC1(C)CC(=O)C2=C(C1)Nc1c(O)cccc1N(C(=O)c1cccc(Cl)n1)C2c1ccc(OCc2ccccc2)cc1F (stereo unspecified) | 13 µM | 690 nM | 108 nM |  | 
30 |  | CC1(C)CC(=O)C2=C(C1)Nc1c(O)cccc1N(C(=O)c1ccco1)C2c1ccc(OCc2ccccc2)cc1F (stereo unspecified) | 16 µM | 2200 nM | 75 nM |  | 
31 |  | Cc1nc(C(=O)N2c3cccc(O)c3NC3=C(C(=O)CC(C)(C)C3)C2c2ccc(OCc3ccccc3)cc2F)co1 (stereo unspecified) | 29 µM | 1600 nM | 63 nM |  | 
32 |  | Cc1cccc(C(=O)N2c3cccc(O)c3NC3=C(C(=O)CC(C)(C)C3)[C@@H]2c2ccc(OCc3ccccc3)cc2F)n1 | 21 µM | 400 nM | 89 nM | 11.6 ×10⁻⁶ cm/s | 50
33 |  | Cc1cccc(C(=O)N2c3cccc(O)c3NC3=C(C(=O)CC(C)(C)C3)[C@H]2c2ccc(OCc3ccccc3)cc2F)n1 | 18 µM | 5700 nM | > 11000 nM |  | 
34 |  | Cc1cc(C(=O)N2c3cccc(O)c3NC3=C(C(=O)CC(C)(C)C3)C2c2ccc(OCc3ccccc3)cc2F)nn1C (stereo unspecified) | 25 µM | 1000 nM | 50 nM |  | 
35 |  | Cc1nc(C(=O)N2c3cccc(O)c3NC3=C(C(=O)CC(C)(C)C3)C2c2ccc(OCc3ccccc3)cc2F)c(C)o1 (stereo unspecified) | 28 µM | 570 nM | 79 nM |  | 
36 |  | Cc1nc(C(=O)N2c3cccc(O)c3NC3=C(C(=O)CC(C)(C)C3)[C@H]2c2ccc(OCc3ccccc3)cc2F)c(C)o1 | 13 µM | 3600 nM | 27000 nM |  | 
37 |  | CC1(C)CC(=O)C2=C(C1)Nc1c(O)cccc1N(C(=O)c1cccnc1)C2c1ccc(OCc2ccccc2)cc1F (stereo unspecified) | 20 µM | 2300 nM | 109 nM |  | 
38 |  | CC1(C)CC(=O)C2=C(C1)Nc1c(O)cccc1N(C(=O)c1ccncc1)C2c1ccc(OCc2ccccc2)cc1F (stereo unspecified) | 76 µM | 3300 nM | 86 nM |  | 
39 |  | CC(=O)N1c2cccc(O)c2NC2=C(C(=O)CC(C)(C)C2)[C@H]1c1ccc(Cl)cc1Cl |  | 14500 nM | 14400 nM |  | 
40 |  | CC(=O)N1c2ncncc2NC2=C(C(=O)CC(C)(C)C2)C1c1ccc(Cl)cc1Cl (stereo unspecified) |  | > 32000 nM | 510 nM |  | 
41 |  | CC(=O)N1c2cccc(O)c2NC2=C(C(=O)CC(C)(C)C2)C1c1ccc(Oc2c(F)cccc2Br)cc1Cl (stereo unspecified) |  | 6300 nM | 120 nM |  | 
42 |  | CC(C)C(=O)N1c2cccc(O)c2NC2=C(C(=O)CC(C)(C)C2)C1c1ccc(OCc2ccccc2)cc1Cl (stereo unspecified) | 17 µM | 1500 nM | 154 nM |  | 
43 |  | CC(=O)N1c2cccc(O)c2NC2=C(C(=O)CC(C)(C)C2)C1c1sccc1OCc1ccccc1 (stereo unspecified) |  | 11000 nM | 180 nM |  | 
44 |  | CC(=O)N1c2cccc(O)c2NC2=C(C(=O)CC(C)(C)C2)C1c1ccc(OCc2ccccc2)cc1Cl (stereo unspecified) | 15 µM | 1500 nM | 40 nM |  | 
45 |  | CC(=O)N1c2ccccc2NC2=C(C(=O)CC(C)(C)C2)[C@@H]1c1ccc(OCc2ccccc2)c(Cl)c1 |  |  | 1000 nM |  | 
46 |  | CC(=O)N1c2cccc(C)c2NC2=C(C(=O)CC(C)(C)C2)C1c1ccc(Cl)cc1Cl (stereo unspecified) |  | 14600 nM | 4780 nM |  | 
47 |  | CC(=O)N1c2cccc(O)c2NC2=C(C(=O)CC(C)(C)C2)C1c1ccc(Oc2ccccc2Br)cc1Cl (stereo unspecified) |  | 7100 nM | 100 nM |  | 
48 |  | CC(=O)N1c2ccccc2NC2=C(C(=O)CC(C)(C)C2)C1c1ccc(OCc2ccccc2)cc1Cl (stereo unspecified) |  | 2300 nM | 900 nM |  | 
49 |  | CC(=O)N1c2cccc(O)c2NC2=C(C(=O)CC(C)(C)C2)C1c1ccccn1 (stereo unspecified) |  | > 32000 nM | > 32000 nM |  | 
50 |  | CC(=O)N1c2cccc(O)c2NC2=C(C(=O)CC(C)(C)C2)C1c1cn(C)c2ccccc12 (stereo unspecified) |  | > 32000 nM | 13000 nM |  | 
51 |  | CC(C)C(=O)N1c2cccc(O)c2NC2=C(C(=O)CC(C)(C)C2)C1c1ccc(OCc2ccccc2)cc1Br (stereo unspecified) | 12 µM | 2400 nM | 87 nM |  | 
